Experimental findings from ChEMBL document CHEMBL6103613 (J Med Chem, 2025) are described below.

≈ marks a conversion by molar mass, not a printed value. Calls of active or inactive are those of the source. No cut-off for these calls is given here.

Data set [1] relates to Staphylococcus aureus. Put plainly: Antimicrobial activity against Staphylococcus aureus assessed as inhibition of visible bacterial growth incubated for 18 hrs by CLSI based analysis. It is filed as functional.
The test system of the next data set is Enterococcus faecalis. Put plainly: Antimicrobial activity against Enterococcus faecalis ATCC 19433 assessed as inhibition of visible bacterial growth incubated for 18 hrs by CLSI based analysis. It is filed as functional.
The test system of data set [2] is Staphylococcus epidermidis. Put plainly: Antimicrobial activity against Staphylococcus epidermidis ATCC 12228 assessed as inhibition of visible bacterial growth incubated for 18 hrs by CLSI based analysis. It is filed as functional.
The test system of data set [3] is Staphylococcus aureus. Put plainly: Antimicrobial activity against methicillin-resistant Staphylococcus aureus clinical isolate 2 assessed as inhibition of visible bacterial growth incubated for 18 hrs by CLSI based analysis. Format: functional.
For a further data set, the system named is Enterococcus gallinarum. Put plainly: Antimicrobial activity against Enterococcus gallinarum ATCC 49573 assessed as inhibition of visible bacterial growth incubated for 18 hrs by CLSI based analysis. It is filed as functional.
For data set [4], the system named is Staphylococcus aureus. Put plainly: Antimicrobial activity against methicillin-resistant Staphylococcus aureus clinical isolate 3 assessed as inhibition of visible bacterial growth incubated for 18 hrs by CLSI based analysis. Format: functional.
The next data set deals with Enterococcus faecium. Description: Antimicrobial activity against vancomycin-resistant Enterococcus faecium assessed as inhibition of visible bacterial growth incubated for 18 hrs by CLSI based analysis. It is filed as functional.
Another data set has as its system Candida albicans. Description: Antifungal activity against Candida albicans assessed as reduction in fungal growth incubated for 18 hrs by CLSI based analysis. Format: functional.
In another data set the test system is Escherichia coli. Put plainly: Antimicrobial activity against Escherichia coli assessed as inhibition of visible bacterial growth incubated for 18 hrs by CLSI based analysis. It is filed as functional.
Data set [5] can be described thus: Therapeutic index, ratio of HC5 for hemolytic activity in mouse Red blood cell to MIC for antimicrobial activity against Staphylococcus aureus ATCC 25923 assessed as inhibition of visible bacterial growth. Conditions: red blood cells, read-out: TI. It is filed as toxicity, cell-based, RBC.
For the next data set, the system named is Bacillus subtilis. Put plainly: Antimicrobial activity against Bacillus subtilis ATCC 23875 assessed as inhibition of visible bacterial growth incubated for 18 hrs by CLSI based analysis. Format: functional.
The test system of data set [6] is Staphylococcus aureus. Description: Antimicrobial activity against methicillin-resistant Staphylococcus aureus clinical isolate 4 assessed as inhibition of visible bacterial growth incubated for 18 hrs by CLSI based analysis. Format: functional.
Data set [7] is described as follows: Hemolytic activity against mouse Red blood cell incubated for 1 hr. To be noted: erythrocyte. It is filed as toxicity, cell-based.
In data set [8] the test system is Staphylococcus aureus. Description: Antimicrobial activity against Staphylococcus aureus ATCC 25923 assessed as inhibition of visible bacterial growth incubated for 18 hrs by CLSI based analysis. It is filed as functional.
For data set [9], the system named is Staphylococcus aureus. Description: Antimicrobial activity against methicillin-resistant Staphylococcus aureus ATCC 43300 assessed as inhibition of visible bacterial growth incubated for 18 hrs by CLSI based analysis. It is filed as functional.
In data set [10] the test system is Staphylococcus aureus. Put plainly: Antibacterial activity against methicillin-resistant Staphylococcus aureus infected in kunming mouse pneumonia model assessed as decrease in TNF-alpha expression in lung at 5 mg/kg, ip measured upto 8 days. It is filed as functional, organism-based. To be noted: time <= 8.0 day.
Data set [11] deals with Staphylococcus aureus. Put plainly: Antibacterial activity against methicillin-resistant Staphylococcus aureus infected in kunming mouse pneumonia model assessed as decrease in IL-10 expression in lung at 5 mg/kg, ip measured upto 8 days. Format: functional, organism-based. Conditions: time <= 8.0 day.
The test system of data set [12] is Staphylococcus aureus. Put plainly: Antimicrobial activity against Staphylococcus aureus assessed as reduction in bacterial growth at 2 times MIC incubated for 24 hrs by time-killing assay. Format: functional, organism-based.
Data set [13] deals with Staphylococcus aureus. Description: Antibacterial activity against methicillin-resistant Staphylococcus aureus infected in kunming mouse pneumonia model assessed as decrease in IL-6 expression in lung at 5 mg/kg, ip measured upto 8 days. It is filed as functional, organism-based. To be noted: time <= 8.0 day.
For data set [14], the system named is Staphylococcus aureus. Put plainly: Antibacterial activity against methicillin-resistant Staphylococcus aureus infected in kunming mouse keratitis model assessed as log reduction in colony count at 5 mg/kg, ip measured upto 8 days. It is filed as functional. To be noted: time <= 8 day.
A short description of data set [15]: Hemolytic activity against mouse Red blood cells at 100 microg/ml incubated for 1 hr relative to control. It is filed as toxicity, cell-based, Erythrocyte. Conditions: at 100 µg/mL, read-out: Activity.

Usually MIC stands for the lowest concentration found to suppress growth. Regarding `CC(C)C[C@H]1NC(=O)[C@H](Cc2c(C(c3ccccc3)(c3ccccc3)c3ccccc3)[nH]c3ccccc23)NC(=O)[C@@H](C(C)C)NC(=O)[C@@H]2CSC(N2)[C@H](C(C)C)NC(=O)[C@@H](C(C)C)NC(=O)[C@H](CCCCN)NC1=O`, the MIC was found to be 3.13 mg/L (≈ 2.97 µM) with Staphylococcus aureus [1]; 12.5 mg/L (≈ 11.9 µM) with Enterococcus faecalis; 6.25 mg/L (≈ 5.93 µM) in data set [2]; 6.25 mg/L (≈ 5.93 µM) in the data set on Staphylococcus aureus [3]; 12.5 mg/L (≈ 11.9 µM) in the data set on Enterococcus gallinarum; 6.25 mg/L (≈ 5.93 µM) with Staphylococcus aureus [4]. The minimal inhibitory concentration (MIC) is 12.5 mg/L (≈ 11.9 µM) in the data set with Enterococcus faecium; 3.13 mg/L (≈ 2.97 µM) in the data set on Candida albicans; 3.13 mg/L (≈ 2.97 µM) with Escherichia coli; 6.25 mg/L (≈ 5.93 µM) in the data set with Bacillus subtilis; 6.25 mg/L (≈ 5.93 µM) in the data set on Staphylococcus aureus [6]; 6.25 mg/L (≈ 5.93 µM) in the data set on Staphylococcus aureus [8]. In the data set with Staphylococcus aureus [9], the MIC was found to be 6.25 mg/L (≈ 5.93 µM). Also, the selectivity ratio in [5] was found to be 11. The same compound registered an HC5 in [7] of 68.73 µg/mL.
Consider `CN[C@H](CC(C)C)C(=O)N[C@H]1C(=O)N[C@@H](CC(N)=O)C(=O)N[C@H]2C(=O)N[C@H]3C(=O)N[C@H](C(=O)N[C@H](C(=O)O)c4cc(O)cc(O)c4-c4cc3ccc4O)[C@H](O)c3ccc(c(Cl)c3)Oc3cc2cc(c3O[C@@H]2O[C@H](CO)[C@@H](O)[C@H](O)[C@H]2O[C@H]2C[C@](C)(N)[C@H](O)[C@H](C)O2)Oc2ccc(cc2Cl)[C@H]1O` [VANCOMYCIN], for which the result in the data set with Staphylococcus aureus [10], in the data set with Staphylococcus aureus [11] and with Staphylococcus aureus [13] was Active. Further, the minimal inhibitory concentration (MIC) with Enterococcus faecalis was 0.39 mg/L (≈ 0.269 µM); in data set [2], 0.39 mg/L (≈ 0.269 µM); with Staphylococcus aureus [3], 3.13 mg/L (≈ 2.16 µM); in the data set with Enterococcus gallinarum it was 3.13 mg/L (≈ 2.16 µM); in the data set with Staphylococcus aureus [4], 0.78 mg/L (≈ 0.538 µM); in the data set on Enterococcus faecium, 25 mg/L (≈ 17.3 µM). Also, the MIC in the data set with Bacillus subtilis was 0.39 mg/L (≈ 0.269 µM); with Staphylococcus aureus [6], 1.56 mg/L (≈ 1.08 µM); in the data set with Staphylococcus aureus [8], 0.78 mg/L (≈ 0.538 µM); in the data set on Staphylococcus aureus [9], 0.78 mg/L (≈ 0.538 µM). Further, the result with Staphylococcus aureus [12] was inactive.
As to `CC(=O)NC[C@H]1CN(c2ccc(N3CCOCC3)c(F)c2)C(=O)O1` [LINEZOLID], the MIC was determined as 1.56 mg/L (≈ 4.62 µM) in the data set on Enterococcus faecalis; 0.39 mg/L (≈ 1.16 µM) in [2]; 3.13 mg/L (≈ 9.28 µM) with Staphylococcus aureus [3]; 1.56 mg/L (≈ 4.62 µM) in the data set on Enterococcus gallinarum; 1.56 mg/L (≈ 4.62 µM) with Staphylococcus aureus [4]; 1.56 mg/L (≈ 4.62 µM) in the data set with Enterococcus faecium. For the same compound, the MIC in the data set on Bacillus subtilis, with Staphylococcus aureus [6], with Staphylococcus aureus [8] and with Staphylococcus aureus [9] was 1.56 mg/L (≈ 4.62 µM) each time. The FC in the data set on Staphylococcus aureus [14] is on record as 0.864.
As to `CC(C)C[C@H]1NC(=O)[C@H](Cc2c(C(c3ccccc3)c3ccccc3)[nH]c3ccccc23)NC(=O)[C@@H](C(C)C)NC(=O)[C@@H]2CSC(N2)[C@H](C(C)C)NC(=O)[C@@H](C(C)C)NC(=O)[C@H](CCCCN)NC1=O`, the MIC amounted to 3.13 mg/L (≈ 3.2 µM) with Staphylococcus aureus [1]; 50 mg/L (≈ 51.1 µM) in the data set on Enterococcus faecalis; 25 mg/L (≈ 25.6 µM) in data set [2]; 25 mg/L (≈ 25.6 µM) in the data set on Staphylococcus aureus [3]; 50 mg/L (≈ 51.1 µM) with Enterococcus gallinarum; 25 mg/L (≈ 25.6 µM) with Staphylococcus aureus [4]. The MIC is 50 mg/L (≈ 51.1 µM) in the data set with Enterococcus faecium; 3.13 mg/L (≈ 3.2 µM) in the data set with Candida albicans; 3.13 mg/L (≈ 3.2 µM) with Escherichia coli; 12.5 mg/L (≈ 12.8 µM) with Bacillus subtilis; 12.5 mg/L (≈ 12.8 µM) in the data set on Staphylococcus aureus [6]; 25 mg/L (≈ 25.6 µM) in the data set on Staphylococcus aureus [8]. Further, in the data set with Staphylococcus aureus [9], the MIC was found to be 25 mg/L (≈ 25.6 µM). The selectivity ratio in data set [5] came to 2.59. Moreover, the HC5 in data set [7] worked out at 64.74 µg/mL.
As for `CC(C)C[C@H]1NC(=O)[C@H](Cc2c(C(c3ccccc3)(c3ccccc3)c3ccccc3)[nH]c3ccccc23)NC(=O)[C@@H](C(C)C)NC(=O)[C@@H]2CSC(N2)[C@H](C(C)C)NC(=O)[C@@H](CCCCN)NC(=O)[C@H](C(C)C)NC1=O`, the MIC in the data set on Staphylococcus aureus [1] amounted to 3.13 mg/L (≈ 2.97 µM); in the data set on Enterococcus faecalis, 12.5 mg/L (≈ 11.9 µM); in data set [2], 6.25 mg/L (≈ 5.93 µM); in the data set on Staphylococcus aureus [3] it was 3.13 mg/L (≈ 2.97 µM); in the data set with Enterococcus gallinarum, 6.25 mg/L (≈ 5.93 µM); in the data set on Staphylococcus aureus [4] it was 6.25 mg/L (≈ 5.93 µM). Besides, the MIC in the data set on Enterococcus faecium was 12.5 mg/L (≈ 11.9 µM); in the data set with Candida albicans, 3.13 mg/L (≈ 2.97 µM); in the data set with Escherichia coli, 3.13 mg/L (≈ 2.97 µM); in the data set on Bacillus subtilis it was 6.25 mg/L (≈ 5.93 µM); in the data set on Staphylococcus aureus [6], 6.25 mg/L (≈ 5.93 µM); with Staphylococcus aureus [8], 3.13 mg/L (≈ 2.97 µM). Moreover, the MIC in the data set on Staphylococcus aureus [9] was 3.13 mg/L (≈ 2.97 µM). For the same compound, in [15], the hemolysis at 1 h, 100 microg/ml stood at 23%. Besides, in [5], the selectivity ratio came to 14.1. The compound further showed an HC5 in data set [7] of 44.04 µg/mL.
